The test system of series [1] is Mycobacterium tuberculosis. The series can be described thus: Antimycobacterial activity against Mycobacterium tuberculosis H37Rv with plasmid MH102 infected in BALB/c mouse assessed as reduction in mycobacterial burden in lung at 50 mg/kg, po daily after 4 days of infection for 7 to 60 days relative to isoniazid. The series is classed as functional, organism-based. On the set-up: dose 50 mg/kg.

Series [2] relates to Mycobacterium tuberculosis. The experiment in a line: Antimycobacterial activity against Mycobacterium tuberculosis H37Rv with plasmid MH102 infected in BALB/c mouse assessed as reduction in mycobacterial burden in lung at 25 mg/kg, po daily after 4 days of infection for 10 days relative to isoniazid. Format: functional, organism-based. Further details: dose 25 mg/kg.
For series [3], the system named is Mycobacterium tuberculosis. The series can be described thus: Antimycobacterial activity against pan-susceptible Mycobacterium tuberculosis TN913. Format: functional.
The test system of series [4] is Mycobacterium tuberculosis. The experiment in a line: Antimycobacterial activity against pan-susceptible Mycobacterium tuberculosis H37Rv. Format: functional.
In series [5] the test system is Mycobacterium tuberculosis. The series can be described thus: Antimycobacterial activity against pan-susceptible Mycobacterium tuberculosis TN2351. Format: functional.
Series [6] relates to Mycobacterium tuberculosis. The experiment in a line: Antimicrobial activity against log phase recombinant Mycobacterium tuberculosis H37Rv-lux with plasmid MV361 at 10 ug/ml incubated for 7 days assessed as bacterial count. The series is classed as functional.
Series [7] deals with Mus musculus. The series can be described thus: Acute toxicity in Mycobacterium tuberculosis H37Rv infected BALB/c mouse at >1000 mg/kg, po single dose. The series is classed as organism-based. To be noted: in vivo.
In series [8] the test system is Mycobacterium tuberculosis. The series can be described thus: Antimycobacterial activity against Mycobacterium tuberculosis H37Rv with plasmid MH102 infected in BALB/c mouse assessed as reduction in mycobacterial burden in spleen at 25 mg/kg, po daily after 4 days of infection for 10 days relative to isoniazid. The series is classed as functional, organism-based. Further details: dose 25 mg/kg.

In series [9] the test system is Mycobacterium tuberculosis. The experiment in a line: Antimicrobial activity against log phase recombinant Mycobacterium tuberculosis H37Rv-lux with plasmid MV361 at 10 ug/ml incubated for 7 days assessed as bacterial count after 4 days. The series is classed as functional.
Series [10] concerns Mycobacterium tuberculosis. The series can be described thus: Antimycobacterial activity against Mycobacterium tuberculosis clinical isolate IS6110 infected in mouse at 25 mg/kg, po. The series is classed as functional, organism-based. On the set-up: dose 25 mg/kg.
Series [11] has as its system Mycobacterium tuberculosis. The series can be described thus: Antimycobacterial activity against pan-susceptible Mycobacterium tuberculosis TN1051. The series is classed as functional.
Series [12] concerns Mycobacterium tuberculosis. The series can be described thus: Antimycobacterial activity against pan-susceptible Mycobacterium tuberculosis TN1082. The series is classed as functional.
The test system of series [13] is Mycobacterium tuberculosis. The series can be described thus: Antimycobacterial activity against Mycobacterium tuberculosis H37Rv ATCC 27294 infected in Hartley guinea pig assessed as reduction in mycobacterial burden in spleen at 40 mg/kg, po daily after 30 days of infection for 30 days relative to isoniazid. Further details: dose 40 mg/kg. The series is classed as functional, organism-based.

Series [14] concerns Mycobacterium tuberculosis. The series can be described thus: Antimycobacterial activity against pan-susceptible Mycobacterium tuberculosis TN3979. The series is classed as functional.
Series [15] concerns Mycobacterium tuberculosis. The experiment in a line: Antimycobacterial activity against pan-susceptible Mycobacterium tuberculosis TN2524. The series is classed as functional.
Series [16] deals with Mycobacterium tuberculosis. The experiment in a line: Antimycobacterial activity against pan-susceptible Mycobacterium tuberculosis TN3183. The series is classed as functional.
In series [17] the test system is Mycobacterium tuberculosis. The experiment in a line: Antimycobacterial activity against Mycobacterium tuberculosis H37Rv ATCC 27294 infected in Hartley guinea pig assessed as reduction in mycobacterial burden in lung at 40 mg/kg, po daily after 30 days of infection for 30 days relative to isoniazid. Format: functional, organism-based. On the set-up: dose 40 mg/kg.

In series [18] the test system is Mus musculus. The experiment in a line: Chronic toxicity in Mycobacterium tuberculosis H37Rv infected BALB/c mouse at >500 mg/kg, po for 28 days. Format: organism-based. To be noted: in vivo, 672 h.
Series [19] has as its system Mycobacterium tuberculosis. The series can be described thus: Antimycobacterial activity against pan-susceptible Mycobacterium tuberculosis TN4259. Format: functional.
The test system of series [20] is Mycobacterium tuberculosis. The series can be described thus: Antimycobacterial activity against Mycobacterium tuberculosis H37Rv with plasmid MH102 infected in BALB/c mouse assessed as reduction in mycobacterial burden in lung at 100 mg/kg, po daily after 4 days of infection for 7 to 60 days relative to isoniazid. Further details: dose 100 mg/kg. Format: functional, organism-based.

The test system of series [21] is Mycobacterium tuberculosis. The series can be described thus: Antimycobacterial activity against pan-susceptible Mycobacterium tuberculosis TN1008. The series is classed as functional.
The test system of series [22] is Mycobacterium tuberculosis. The experiment in a line: Antimycobacterial activity against pan-susceptible Mycobacterium tuberculosis TN1040. Format: functional.
Series [23] has as its system Mycobacterium tuberculosis. The series can be described thus: Antimycobacterial activity against pan-susceptible Mycobacterium tuberculosis TN1037. Format: functional.

In brackets after ≈: the same amount, converted by molar mass. Activity calls are given as the source filed them. The calls are words filed in the database; no cut-off is given here.

With `O=[N+]([O-])c1cn2c(n1)OC[C@@H](OCc1ccc(OC(F)(F)F)cc1)C2` [PRETOMANID], the outcome in series [1], in [2], in [8], in series [10], in series [13] and in series [17] was Active. Also, the result in [20] was Active. In addition, the MIC in series [3] was 0.06 µg/mL (≈ 0.167 µM); in series [4], 0.13 µg/mL (≈ 0.362 µM); in [5], 0.06 µg/mL (≈ 0.167 µM); in series [11], 0.06 µg/mL (≈ 0.167 µM); in series [12], 0.06 µg/mL (≈ 0.167 µM); in series [14], 0.13 µg/mL (≈ 0.362 µM). The MIC came to 0.25 µg/mL (≈ 0.696 µM) in series [15]; 0.015 µg/mL (≈ 0.0418 µM) in [16]; 0.06 µg/mL (≈ 0.167 µM) in series [19]; 0.06 µg/mL (≈ 0.167 µM) in [21]; 0.13 µg/mL (≈ 0.362 µM) in [22]; 0.06 µg/mL (≈ 0.167 µM) in [23]. The log10cfu in series [6] was 3.5; in series [9], 3.1. Besides, the Activity entry in the series on Mus musculus [7] and in the series on Mus musculus [18] was “Toxic” throughout.
`CCC1Cn2cc([N+](=O)[O-])nc2O1` (stereo unspecified): the values for the log10cfu in [6] and in series [9] were 1.8 and 1.5, respectively.
With `NNC(=O)c1ccncc1` [ISONIAZID], the MIC in series [3] was found to be 0.03 µg/mL (≈ 0.219 µM); in [4] it was 0.03 µg/mL (≈ 0.219 µM); in series [5], 0.06 µg/mL (≈ 0.438 µM); in series [11], 0.03 µg/mL (≈ 0.219 µM); in [12] it was 0.03 µg/mL (≈ 0.219 µM); in [14] it was 0.06 µg/mL (≈ 0.438 µM). The MIC was 0.06 µg/mL (≈ 0.438 µM) in series [15]; 0.03 µg/mL (≈ 0.219 µM) in series [16]; 0.03 µg/mL (≈ 0.219 µM) in series [19]; 0.06 µg/mL (≈ 0.438 µM) in series [21]; 0.03 µg/mL (≈ 0.219 µM) in series [22]; 0.03 µg/mL (≈ 0.219 µM) in series [23]. In addition, the log10cfu worked out at 1.4 in series [6] and 1 in [9].
As for `Cc1ncc([N+](=O)[O-])n1CCO` [METRONIDAZOLE], the log10cfu was 2.8 in series [6] and 3.2 in [9].

For the origin of these results see ChEMBL document CHEMBL1143399, “A small-molecule nitroimidazopyran drug candidate for the treatment of tuberculosis” (Nature, 2000).
